Results reported in patent US20250186503A1, “METHODS AND COMBINATIONS FOR TREATMENT AND T CELL MODULATION” (Juno Therapeutics, Inc., priority 2018, published 2025).

Tests used:
[1] = system: Granta-519 or Raji target cells; experiment: Cytokine production and cytolytic activity of anti-CD19 CAR+ T cells with Granta-519 or Raji target cells; assay type: cell-based, human
Protocol: Similar studies as above were conducted using Granta-519 or Raji target cells to assess cytokine production and cytolytic activity of anti-CD19 CAR-expressing T cells upon co-culture with the target cells. As shown in FIG. 33B Raji cells were selected due to high expression of cell surface molecule CD19 when compared to Granta-519, as quantified by flow cytometry. Enumeration of CD19 was inferred by a standard curve generated using molecules of equivalent soluble fluorophore beads.
After 24 hours of culture cytokine production was monitored in the supernatant. […] Cytolytic activity also was measured for pooled donors over time of the co-culture.

[2] = system: Granta-519 tumor spheroids; experiment: Granta-519 spheroid tumor growth assay after concurrent treatment during chronic stimulation; assay type: cell-based, human
Excerpt: Averaged measurement of tumor spheroid size at various times following co-culture with CAR-T cells was monitored.
The log 2 fold change compared to control cells (chronically stimulated cells that had not been concurrently treated with immunomodulatory compound) is shown in FIG. 48E. […] The results further support that immunomodulatory compounds during conditions that can promote exhaustion, such as during chronic stimulation, can improve or preserve CAR T cell function and limit, reduce or prevent CAR T cell exhaustion.

OPM-2 = OPM-2 human multiple myeloma orthotopic mouse model, Study 1; assay type: in vivo
Protocol: Mice (NOD.Cg-Prkd^scidIL-2rg^tm1Wjl/SzJ mice (NSG; Jackson Labs)) were injected intravenously (i.v.) with 2×10^6 OPM2 (multiple myeloma) cells transfected with firefly luciferase (OPM2-ffluc). Tumor engraftment was allowed to occur for 13 days prior to staging (14 days before CAR-T cell administration) and verified using bioluminescence imaging.
In groups receiving CAR+ T cells, anti-BCMA CAR (generated by transducing cells derived from samples of human donor subjects essentially as described above) were administered at day 0 (day 14 after tumor cell injection), at a dose of either 5×10^5 (low) or 1×10^6 (high) CAR-expressing T cells. Table E1 summarizes the dosing regimens.
Tumor burden in animals among the various groups was monitored by bioluminescence imaging up to day 39 post-CAR+ T cell dosing. For bioluminescence imaging, mice received intraperitoneal (i.p.) injections of luciferin substrate (CaliperLife Sciences, Hopkinton, MA) resuspended in PBS (15 μg/g body weight). The total flux (photon/s) was determined at each time point.
Table E2 lists median survival (ms) (as assessed at day 56 post-CAR+ T cell administration) and number of mice in group surviving until day 56-post-CAR+ T cell administration, for each animal group assessed in this study.

anti-CD19 CAR+ T cells = experiment: Expansion of anti-CD19 CAR+ T cells following serial restimulation with irradiated K562-CD19 cells; assay type: cell-based, human; conditions: 1 μM, 4 rounds of stimulation, 12 days, two donors
Protocol: The ability of anti-CD19 CAR+ T cells to expand ex vivo following repeated stimulations was assessed using methods substantially as described in Example 2. […] For each donor, cells were harvested every 3-5 days from each experimental condition in the wells and counted, and restimulated with new target cells using the same culture conditions after resetting cell number to initial seeding density for each round. A total of 4 rounds of stimulation during a 12 day culture period were carried out. For each round of stimulation, the total number of cells was determined, and the results were depicted as the fold-change of cell number after stimulation (FIG. 17A) or number of doublings compared to initial number (FIG. 17B).

anti-BCMA CAR+ T cells = experiment: T cell markers on anti-BCMA CAR+ T cells stimulated with BCMA-conjugated beads; assay type: cell-based, human
Protocol: Approximately 1.5×10^6 CAR+ T cells were added to wells of a 12-well plate and were incubated with beads from a 200 μg/ml BCMA-conjugated bead composition at a ratio of CAR+ T cell to BCMA-conjugated bead of 1:0.3, 1:1 or 1:3 (approximately 0.5×10^6, 1.5, 10^6, and 4.5×10^6 beads per well, respectively). As controls, 5 μg/mL anti-CD3 antibody was coated to wells (sub-optimal concentration for stimulation) or cells were seeded in the absence of any agent (no stimulation control). […] The cells were incubated for four days and then analyzed by flow cytometry for surface expression of CD4, CD8, Tim3, PD-1, CD25 and CD69.
In a further experiment, anti-BCMA CAR-T cell compositions produced substantially as described in Example 1 were plated in 96-well plates at a density of 5×10^5 cells per well. The tested CAR-T cell compositions contained, on average, approximately 45% anti-BCMA CAR+ cells at plating. Cells from each composition were incubated for 18 hours in the presence of beads from a 5 μg/ml, 50 μg/ml, or 200 μg/ml BCMA-conjugated bead composition at a ratio of 1:1 T cells to beads. As a control, cells were incubated with anti-CD3/anti-CD28 antibody-conjugated beads (positive control) or no added agent (negative control). […] Following the incubation, the cells were treated with reagents that allowed for extracellular and intracellular antibody staining by flow cytometry for the transcription factors Blimp1, EOMES, GATA-3, ikaros, helios, and Tbet and markers CD25, CD31, and PD-1.

Cc1nc2cccc(N)c2c(=O)n1C1CCC(=O)NC1=O (stereo not drawn) [Compound 1, 3-(5-amino-2-methyl-4-oxo-4H-quinazolin-3-yl)-piperidine-2,6-dione]
IL-2 production ([1]; 100 or 1000 nM, 2.5:1 E:T, 24 hours): increase compared to control
IFN-γ production ([1]; 100 or 1000 nM, 2.5:1 E:T, 24 hours, CD8+ CAR-expressing T cells): concentration dependent increase
cytolytic activity over time ([1]; pooled donors, CD8+ CAR-expressing T cells): limited effect

O=C1CC[C@H](N2Cc3c(OCc4ccc(CN5CCOCC5)cc4)cccc3C2=O)C(=O)N1 [Compound 2, (S)-3-[4-(4-morpholin-4-ylmethyl-benzyloxy)-1-oxo-1,3-dihydro-isoindol-2-yl]-piperidine-2,6-dione]
cytolytic function against Granta-519 tumor spheroids (tumor volume after 9 days) ([2]; 0.001 μM or 0.01 μM concurrent): significantly increased cytolytic function
IFNγ in supernatant ([2]; 5 days co-culture, concurrent treatment): statistically significant increase
improvement in cytolytic function compared with Compound 1 ([2]; concurrent treatment): greater with concurrent treatment with Compound 2 than Compound 1

Nc1cccc2c1CN(C1CCC(=O)NC1=O)C2=O (stereo not drawn) [lenalidomide, 3-(4-amino-1-oxo-1,3-dihydro-2H-isoindol-2-yl)piperidine-2,6-dione]
tumor growth or tumor burden, lenalidomide alone (OPM-2; 10 mg/kg i.p. daily, no CAR-T cells): not observed to reduce tumor growth or tumor burden
# animals surviving day 56 post-CART (OPM-2; cell dose 1.00E+06 (hi) or 5.00E+05 (low), lenalidomide 10 mg/kg i.p. daily from day −1 (A) or day 14 (B)): 0/8
Median Survival (assessed at day 6) (OPM-2; cell dose 1.00E+06 (hi) or 5.00E+05 (low), lenalidomide 10 mg/kg i.p. daily from day −1 (A) or day 14 (B), listed as lenalidomide (A)): 28
Median Survival (assessed at day 6) (OPM-2; cell dose 1.00E+06 (hi) or 5.00E+05 (low), lenalidomide 10 mg/kg i.p. daily from day −1 (A) or day 14 (B), listed as lenalidomide (B)): 25
survival effects in mice treated with anti-BCMA CAR+ T cells (OPM-2; high and low CAR doses, lenalidomide at day −1 (A) or delayed d.14 (B)): improved survival effects
day post-CAR-T cell injection from which clear differences were observed (OPM-2; higher (1×10^6) dose of CAR+ T cells, lenalidomide B): 30 to 40 days
tumor growth and tumor burden in mice administered CAR+ T cells (OPM-2; lenalidomide 10 mg/kg i.p. daily from day −1 (A), both CAR+ T cell doses): slower tumor growth and reduced tumor burden
tumor growth and tumor burden in mice administered CAR-T cells (OPM-2; lenalidomide from day 14 post-CAR+ T (B), both doses of CAR-T cells): trend towards slower tumor growth and reduced tumor burden
cell expansion of anti-CD19 CAR+ T cells (anti-CD19 CAR+ T cells): no change or only a minor effect
expression level of Ikaros (anti-BCMA CAR+ T cells; 0.5 μM or 5 μM, 18 hours, all conditions): decreased
proliferative capacity of T cells (CTV dye) (anti-BCMA CAR+ T cells; 5 μM, 200 μg BCMA beads 1:1, three days): increased
surface expression of CD25 in CD4+ and CD8+ T cells (anti-BCMA CAR+ T cells; BCMA-conjugated beads or anti-CD3 stimulation): further increased
